Experimental data: US7282522B2, “Hydroxamic acid derivatives and the method for preparing thereof” (Amorepacific Corporation, priority 2003, dated 2007)
Read-outs that look alike come from different tables or passages of the source.

How the values were obtained:
[1] = biological target: T1, RARα (Homo sapiens, UniProt P10276); assay: RARE-luciferase reporter assay in transfected CV-1 cells (affinity to retinoic acid receptor), RARα; format: cell-based; conditions: treated 24 hours at final concentration 10^−4M, control group 1000
T1 construct: expressed in transfected cells; host or cells: CV-1 cells (ATCC)
T1 sequence (P10276 1-462): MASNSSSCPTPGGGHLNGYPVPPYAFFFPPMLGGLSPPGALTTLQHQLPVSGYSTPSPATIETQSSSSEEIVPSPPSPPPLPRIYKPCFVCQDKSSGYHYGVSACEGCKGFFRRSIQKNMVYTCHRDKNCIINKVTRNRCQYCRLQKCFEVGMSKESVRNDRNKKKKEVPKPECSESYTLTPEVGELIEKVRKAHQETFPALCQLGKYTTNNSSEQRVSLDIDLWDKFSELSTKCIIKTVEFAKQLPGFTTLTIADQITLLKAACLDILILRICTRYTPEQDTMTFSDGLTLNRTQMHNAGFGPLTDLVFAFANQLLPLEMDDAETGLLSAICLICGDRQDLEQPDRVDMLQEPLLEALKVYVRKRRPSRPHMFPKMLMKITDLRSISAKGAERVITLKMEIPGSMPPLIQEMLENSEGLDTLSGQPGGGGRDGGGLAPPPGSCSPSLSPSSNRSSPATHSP
Summary of the method: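 CV-1 cells co-transfected with pECE-RARα or pECE-RARγ, RARE-tk-Luc reporter and β-galactosidase vector. Starting 24 h post-transfection, cells were treated for 24 h with compounds at a final 10^−4M; luciferase reporter read-out.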

[2] = system: white guinea pigs; assay: Phototoxicity test (UVA irradiation); conditions: for Evaluation (phototoxicity): 1%(w/v) solution, UVA 15 J/cm^2; for Phototoxic index: 50 μl of 1%(w/v) solution, UVA 320~380 nm 15 J/cm^2, observed 24, 48 and 72 hours
[3] = system: procollagen type I; assay: Effect on collagen biosynthesis (procollagen type I ELISA) in human fibroblasts; format: cell-based; conditions: 10^−4M, 24 hours, serum-free medium, relative to control group = 100
Procedure: Human fibroblasts were seeded into 24-well plate at 1×10^5 cells per well and then cultured to 90% of growth.
For each supernatant, procollagen production was measured with procollagen type I ELISA kit.

[4] = biological target: T2, RARγ (Homo sapiens, UniProt P13631); assay: RARE-luciferase reporter assay in transfected CV-1 cells (affinity to retinoic acid receptor), RARγ; format: cell-based; conditions: treated 24 hours at final concentration 10^−4M, control group 5000
T2 construct: expressed in transfected cells; host or cells: CV-1 cells (ATCC)
T2 sequence (P13631 1-454): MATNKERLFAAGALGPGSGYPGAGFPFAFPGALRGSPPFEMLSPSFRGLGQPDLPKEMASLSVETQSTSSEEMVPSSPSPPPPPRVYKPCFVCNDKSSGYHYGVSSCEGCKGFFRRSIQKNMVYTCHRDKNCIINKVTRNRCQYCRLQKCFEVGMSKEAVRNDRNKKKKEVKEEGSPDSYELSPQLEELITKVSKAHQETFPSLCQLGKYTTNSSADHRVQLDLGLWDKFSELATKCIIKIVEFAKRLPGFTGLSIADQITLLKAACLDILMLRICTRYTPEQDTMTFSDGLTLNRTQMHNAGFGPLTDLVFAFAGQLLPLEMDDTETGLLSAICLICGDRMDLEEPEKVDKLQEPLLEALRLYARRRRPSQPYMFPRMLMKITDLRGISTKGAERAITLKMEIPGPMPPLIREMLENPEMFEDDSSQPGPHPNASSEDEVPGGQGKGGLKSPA
Summary of the method: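 CV-1 cells in DMEM with 2.5% FBS, 5,000 per well, transfected 24 h after seeding with 10 ng pECE-RARα, pECE-RARγ, 100 ng RARE-tk-Luc reporter and 100 ng β-galactosidase vector. Read-out is RARE-driven luciferase.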

[5] = system: collagenase; assay: Inhibition of collagenase expression in human fibroblasts (ELISA kit); format: cell-based; conditions: 10^−4M, 24 hours, serum-free medium, relative to control group = 100
Summary of the method: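 Serum-starved human fibroblasts were treated for 24 h with 10^−4M test material in serum-free DMEM. Collagenase in the culture fluid was measured by sandwich ELISA read at 405 nm. Values are expressed as % of the untreated control (=100).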

[6] = system: elastase; assay: Inhibition of elastase expression in human fibroblasts (ELISA kit); format: cell-based; conditions: 10^−4M, 24 hours, serum-free medium, relative to control group = 100
Summary of the method: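 Elastase in fibroblast culture fluid quantified by sandwich ELISA: 3 h capture, then chromophore-conjugated secondary antibody, then colour development, stopped with 1M sulfuric acid. Absorbance read at 405 nm. Expression given as % of the untreated control absorbance, with control set to 100.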

[7] = system: rabbits; conditions: rabbit, in vivo
Procedure: (§1) Test was performed using fifty-six (56) of healthy male rabbits whose backs were depilated. […] 0.5ml of the test sample solution was applied to the right site of 2.5 cm×2.5 cm region on each of the depilated back. Left site with no sample treated was compared as a control. 24 hours or 72 hours later, skin abnormality such as erythema, crust and edema was observed.
(§2) Based on the score of skin response, skin irritation was evaluated according to Draize's P.I.I.(Primary Irritation Index) and compared with retinoic acid.

[8] = system: rabbits; assay: Primary skin irritation test on animals (Draize P.I.I.); conditions: depilated back; for P.I.I. (Primary Irritation Index): 0.5 ml of 1% solution in 1,3-butylene glycol:ethanol 7:3, observed 24 or 72 hours later; for Evaluation (skin irritation): 1% solution, according to Draize's P.I.I.
Procedure: as §1, §2

Molecule: CN(C(=O)c1ccc(C(C)(C)C)cc1)c1ccc(C(=O)NO)cc1 [Example 19, N-[4-(N-hydroxycarbamoyl)phenyl]-N-methyl-[4-tert-butylphenyl]carboxyamide]
- Luciferase activity RARα [1]: 10020
- Evaluation (phototoxicity) [2]: No phototoxicity (lower value than 0.5, criterion value to be estimated as no phototoxicity)
- Phototoxic index [2]: 0
- Collagen biosynthesis (%) [3]: 120%
- Luciferase activity RARγ [4]: 11200
- Collagenase expression (%) [5]: 70%
- Elastase expression (%) [6]: 80%
- Evaluation (skin irritation) [7]: No irritation
- P.I.I. (Primary Irritation Index) [7]: 0.223

Molecule: O=C(Cc1ccc(NC(=O)c2ccccc2)cc1)NO [Example 23, N-[4-(N-hydroxycarbamoylmethyl)phenyl]benzamide]
- Luciferase activity RARα [1]: 13000
- Evaluation (phototoxicity) [2]: No phototoxicity (lower value than 0.5, criterion value to be estimated as no phototoxicity)
- Phototoxic index [2]: 0
- Collagen biosynthesis (%) [3]: 131%
- Luciferase activity RARγ [4]: 13200
- Collagenase expression (%) [5]: 77%
- Elastase expression (%) [6]: 79%
- Evaluation (skin irritation) [7]: No irritation
- P.I.I. (Primary Irritation Index) [7]: 0.321

Molecule: CCc1ccc(N(C)C(=O)c2ccc(C(=O)NO)cc2)cc1 [Example 48, [4-(N-hydroxycarbamoyl)phenyl]-N-methyl-N-[4-ethylphenyl]carboxyamide]
- Luciferase activity RARα [1]: 15500
- Evaluation (phototoxicity) [2]: No phototoxicity (lower value than 0.5, criterion value to be estimated as no phototoxicity)
- Phototoxic index [2]: 0
- Collagen biosynthesis (%) [3]: 107%
- Luciferase activity RARγ [4]: 11200
- Collagenase expression (%) [5]: 87%
- P.I.I. (Primary Irritation Index) [8]: 0.468
- Evaluation (skin irritation) [8]: No irritation
- Elastase expression (%) [6]: 87%

Molecule: CCCc1ccc(N(C)C(=O)c2ccc(C(=O)NO)cc2)cc1 [Example 49, [4-(N-hydroxycarbamoyl)phenyl]-N-methyl-N-[4-propylphenyl]carboxyamide]
- Luciferase activity RARα [1]: 14500
- Evaluation (phototoxicity) [2]: No phototoxicity (lower value than 0.5, criterion value to be estimated as no phototoxicity)
- Phototoxic index [2]: 0
- Collagen biosynthesis (%) [3]: 109%
- Luciferase activity RARγ [4]: 12100
- Collagenase expression (%) [5]: 81%
- P.I.I. (Primary Irritation Index) [8]: 0.342
- Evaluation (skin irritation) [8]: No irritation
- Elastase expression (%) [6]: 87%

Molecule: CC(C)c1ccc(N(C)C(=O)c2ccc(C(=O)NO)cc2)cc1 [Example 50, [4-(N-hydroxycarbamoyl)phenyl]-N-methyl-N-[4-isopropylphenyl]carboxyamide]
- Luciferase activity RARα [1]: 12300
- Evaluation (phototoxicity) [2]: No phototoxicity (lower value than 0.5, criterion value to be estimated as no phototoxicity)
- Phototoxic index [2]: 0
- Collagen biosynthesis (%) [3]: 110%
- Luciferase activity RARγ [4]: 11212
- Collagenase expression (%) [5]: 80%
- P.I.I. (Primary Irritation Index) [8]: 0.234
- Evaluation (skin irritation) [8]: No irritation
- Elastase expression (%) [6]: 78%

Molecule: CCCCc1ccc(N(C)C(=O)c2ccc(C(=O)NO)cc2)cc1 [Example 51, [4-(N-hydroxycarbamoyl)phenyl]-N-methyl-N-[4-butylphenyl]carboxyamide]
- Luciferase activity RARα [1]: 13400
- Evaluation (phototoxicity) [2]: No phototoxicity (lower value than 0.5, criterion value to be estimated as no phototoxicity)
- Phototoxic index [2]: 0
- Collagen biosynthesis (%) [3]: 121%
- Luciferase activity RARγ [4]: 12210
- Collagenase expression (%) [5]: 76%
- P.I.I. (Primary Irritation Index) [8]: 0.331
- Evaluation (skin irritation) [8]: No irritation
- Elastase expression (%) [6]: 77%

Molecule: CN(C(=O)c1ccc(C(=O)NO)cc1)c1ccc(C(C)(C)C)cc1 [Example 52, [4-(N-hydroxycarbamoyl)phenyl]-N-methyl-N-[4-tert-butylphenyl]carboxamide]
- Luciferase activity RARα [1]: 12400
- Evaluation (phototoxicity) [2]: No phototoxicity (lower value than 0.5, criterion value to be estimated as no phototoxicity)
- Phototoxic index [2]: 0
- Collagen biosynthesis (%) [3]: 127%
- Luciferase activity RARγ [4]: 12130
- Collagenase expression (%) [5]: 77%
- P.I.I. (Primary Irritation Index) [8]: 0.412
- Evaluation (skin irritation) [8]: No irritation
- Elastase expression (%) [6]: 87%

Molecule: Cc1ccc(N(C)C(=O)c2ccc(C(=O)NO)cc2)cc1C [Example 53, [4-(N-hydroxycarbamoyl)phenyl]-N-methyl-N-[3,4-dimethylphenyl]carboxyamide]
- Luciferase activity RARα [1]: 14500
- Evaluation (phototoxicity) [2]: No phototoxicity (lower value than 0.5, criterion value to be estimated as no phototoxicity)
- Phototoxic index [2]: 0
- Collagen biosynthesis (%) [3]: 122%
- Luciferase activity RARγ [4]: 12300
- Collagenase expression (%) [5]: 75%
- P.I.I. (Primary Irritation Index) [8]: 0.321
- Evaluation (skin irritation) [8]: No irritation
- Elastase expression (%) [6]: 80%

Molecule: CN(C(=O)c1ccc(C(=O)NO)cc1)C12CC3CC(CC(C3)C1)C2 [Example 54, [4-(N-hydroxycarbamoyl)phenyl]-N-adamantyl-N-methylcarboxyamide]
- Luciferase activity RARα [1]: 22500
- Evaluation (phototoxicity) [2]: No phototoxicity (lower value than 0.5, criterion value to be estimated as no phototoxicity)
- Phototoxic index [2]: 0
- Collagen biosynthesis (%) [3]: 121%
- Luciferase activity RARγ [4]: 11000
- Collagenase expression (%) [5]: 83%
- P.I.I. (Primary Irritation Index) [8]: 0.567
- Evaluation (skin irritation) [8]: No irritation
- Elastase expression (%) [6]: 67%

Molecule: CN(O)C(=O)c1ccc(C(=O)N(C)C23CC4CC(CC(C4)C2)C3)cc1 [Example 55, N-adamantyl [4-(N-hydroxy-N-methylcarbamoyl)phenyl]-N-methyl carboxyamide]
- Luciferase activity RARα [1]: 13400
- Evaluation (phototoxicity) [2]: No phototoxicity (lower value than 0.5, criterion value to be estimated as no phototoxicity)
- Phototoxic index [2]: 0
- Collagen biosynthesis (%) [3]: 108%
- Luciferase activity RARγ [4]: 11000
- Collagenase expression (%) [5]: 85%
- P.I.I. (Primary Irritation Index) [8]: 0.245
- Evaluation (skin irritation) [8]: No irritation
- Elastase expression (%) [6]: 70%

Molecule: N-[4-(N-hydroxycarbamoyl)phenyl]adamantyl carboxyamide [Example 10]
- Luciferase activity RARα [1]: 11000
- Evaluation (phototoxicity) [2]: No phototoxicity (lower value than 0.5, criterion value to be estimated as no phototoxicity)
- Phototoxic index [2]: 0
- Collagen biosynthesis (%) [3]: 106%
- Luciferase activity RARγ [4]: 12000
- Collagenase expression (%) [5]: 75%
- Elastase expression (%) [6]: 77%
- Evaluation (skin irritation) [7]: No irritation
- P.I.I. (Primary Irritation Index) [7]: 0.375
